Assays:
[1] = molecular target: T1, CRTH2 (Homo sapiens, UniProt Q9Y5Y4); assay: Radioligand binding Scintillation Proximity Assay ([3H]PGD2, hCRTH2-CHO cell membranes); parameters: host or cells: CHO cells; conditions: 1.5 nM [3H]PGD2, hCRTH2-CHO cell membranes, SPA
T1 sequence (Q9Y5Y4 1-395): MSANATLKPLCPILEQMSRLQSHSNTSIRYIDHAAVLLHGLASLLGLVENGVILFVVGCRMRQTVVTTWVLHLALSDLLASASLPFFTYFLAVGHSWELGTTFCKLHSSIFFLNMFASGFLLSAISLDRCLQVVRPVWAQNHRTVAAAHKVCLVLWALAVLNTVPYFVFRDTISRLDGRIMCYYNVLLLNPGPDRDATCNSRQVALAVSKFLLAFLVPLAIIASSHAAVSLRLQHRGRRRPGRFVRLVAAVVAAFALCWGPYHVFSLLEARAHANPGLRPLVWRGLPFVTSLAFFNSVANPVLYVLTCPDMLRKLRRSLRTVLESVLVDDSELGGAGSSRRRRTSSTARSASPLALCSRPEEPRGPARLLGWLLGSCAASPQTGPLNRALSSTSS
Summary of the method: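 SPA competition binding at room temperature, 90 min with agitation: 1.5 nM [3H]PGD2, 10-50 μg/ml hCRTH2-CHO membrane protein, WGA SPA beads, HEPES pH 7.4 with 10 mM MnCl2, 1% DMSO. Non-specific binding defined with 10 μM PGD2; scintillation counting.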

[2] = system: eosinophils in human whole blood; assay: PGD2-induced eosinophil cell shape assay in human whole blood; type: cell-based; conditions: 10 nM PGD2 final, flow cytometry
Method: The Compounds of Formula (I) were diluted in dimethylsulphoxide so that the total volume of dimethylsulfoxide was kept constant at 2% dimethylsulphoxide (Me2SO). Serial dilutions of 200 μM to 0.09 μM were prepared. Samples of 90 μl of human blood from healthy volunteers (Centre de Transfusion Sanguine de Genève) were pre-incubated in polypropylene Falcon tubes (BD 352063) for 20 minutes in a water bath at 37° C. with 10 μl of diluted compounds. For CRTH2 activation, 100 μl PGD2 (Cayman 12010) at 20 nM was added (10 nM final) to each tube and cells were maintained at 37° C. For negative control cells were treated with PBS. After 10 minutes, cell activation was stopped with 120 μl Formaldehyde 10% (4% final, Fluka 41650) and cells were rested for 10 minutes at room temperature. Fixed cells were transferred into polypropylene tubes and then treated for 1 hour in a water bath at 37° C. with 2 ml of Triton-Surfact-Amps X-100 (Pierce 28314) at 0.166% (0.13% Triton final). After several washes with PBS (red cells lysed progressively during washes, two washes are necessary), cells were analyzed by flow cytometry on a FACSCalibur. In one embodiment, the compounds of Formula (I) of the present invention are capable of blocking the cell shape change of eosinophils induced by PGD2 in Whole Blood.

[3] = molecular target: T1, CRTH2; assay: [35S]GTPγS binding assay (CHO-CRTH2 cell membranes); type: biochemical; parameters: expressed in transfected cells; host or cells: CHO-CRTH2 cells; conditions: antagonist mode, fixed concentration of PGD2 (EC80)
Method: Adherent CHO cells expressing hCRTH2 (Euroscreen, Belgium) were cultured in 225 cm^2 cell culture flasks (Corning, USA) in 30 ml of medium. After two rinses of phosphate buffered saline (PBS), cells were harvested in 10 ml of PBS containing 1 mM EDTA, centrifuged at 500×g for 5 min at 4° C. and frozen at −80° C. The pellet was re-suspended in 50 mM Tris-HCl, pH 7.4, 2 mM EDTA, 250 mM Sucrose, containing protease inhibitor cocktail tablets, (Complete EDTA-free, Roche, Germany) and incubated 30 min at 4° C. Cells were disrupted by nitrogen cavitation (Parr Instruments, USA) at 4° C. (800 p.s.i. for 30 min), and centrifuged at 500×g for 10 min at 4° C. Pellet containing nuclei and cellular debris was discarded and supernatant was centrifuged 60 min at 4° C. at 45000×g. Membrane pellet was re-suspended in storage buffer (10 mM HEPES/KOH pH 7.4, 1 mM EDTA, 250 mM sucrose, protease inhibitor cocktail tablets) using Dounce homogenization and frozen in liquid nitrogen, and stored at −80° C.
The [^35S]GTPγS assay measures the increase in guanine nucleotide exchange at G-proteins in cell membranes, resulting from agonist (PGD2) binding to CRTH2. This process can be monitored in vitro by incubating cell membranes containing G-proteins and CRTH2 with GDP and [^35S]GTPγS, a radiolabeled, hydrolysis-resistant analogue of GTP (see, Harrison et al., Life Sciences 74, 489-508, 2003). The addition of a Compounds of Formula (I) results in binding to CRTH2 and thus in an inhibition of agonist binding, which can be monitored as inhibition of the stimulation of GTP/GDP exchange.
Briefly, Compounds of Formula (I) are incubated in 96-well scintillating white polystyrene plates (Perkin Elmer, USA) in a final volume of 200 μl containing 20 mM HEPES/KOH pH 7.4, 3 mM MgCl2, 10 μg/ml Saponin, 5 μM GDP, 75 mM NaCl and 2% of dimethylsulphoxide (DMSO). Reaction is triggered by the addition of 5-10 μg of CHO-CRTH2 cell membranes and 0.15 nM [^35S]GTPγS. After 60 min incubation at 30° C., reaction is stopped by centrifugation at 700×g, at 4° C. for 10 minutes and supernatant is removed. The radioactivity coming from the [^35S]GTPγS bound on centrifuged cell membranes is recorded using a 1450 Micro-beta scintillation counter. For IC50 determination, increasing concentrations of compounds are incubated in presence of a fixed concentration of PGD2 (EC80). For EC50 measurements, compounds are incubated without addition of PGD2. Basal [^35S]GTPγS activity is determined without addition of any ligands or compounds. 100% [^35S]GTPγS activity is measured by the addition of 1 μM of PGD2.

[4] = molecular target: T1, CRTH2; assay: Cellular Dielectric Spectroscopy (CHO-CRTH2 cells); type: cell-based; parameters: expressed in transfected cells; host or cells: CHO-CRTH2 cells; conditions: for EC50 / Emax: partial agonists, agonist activity without PGD2
Summary of the method: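 Label-free cellular dielectric spectroscopy measured impedance changes (dZ) in CHO-CRTH2 cells. The cells were grown in HAM's F12 with 10% foetal calf serum and 400 μg/ml Geneticin, plated at 100000 cells/well in 96W electrode microplates, and kept 24 hours at 37° C. in 5% CO2. They were then washed twice with 135 μl of HBSS/10 mM HEPES pH 7.4/1% DMSO buffer. Signal was the max-min amplitude, with basal and maximum activity defined without and with PGD2 (EC80).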

[5] = system: OVA-induced lung eosinophilia in mice; assay: OVA-induced lung eosinophilia in mice; type: in vivo, BALB/c mice; conditions: BAL fluid, dose 1 mg/kg
Method: BALB/c mice (6-8 weeks old) were immunized with ovalbumin (10 μg i.p) on day 0 and 7. In order to elicit a local inflammatory response in the lung, mice were challenged between day's 15-17 with a nebulised solution of ovalbumin (10 μg/ml; De Vilibiss Ultraneb 2000, once daily for 30 min during the 3 days). On each separate day between 15 and 17 each animal received via oral gavage the test compound, at t−1 h and t+7 h with respect to OVA exposure at t=0 h. Eight hours after the final OVA challenge, bronchoalveolar lavage (BAL) was then carried out. Total cell numbers in the BAL fluid samples were measured using a haemocytometer. Cytospin smears of the BAL fluid samples were prepared by centrifugation at 1200 rpm for 2 min at room temperature and stained using a DiffQuik stain system (Dade Behring) for differential cell counts. […]

SMILES	IC50 [1] [nM]	IC50 [2] [nM]	IC50 [3] [nM]	melting point [°C]	further results
CS(=O)(=O)c1ccc(F)c(C#Cc2cc(Cl)ccc2OCC(=O)O)c1 [Example 48, (4-chloro-2-{[2-fluoro-5-(methylsulfonyl)phenyl]ethynyl}phenoxy)acetic acid]	9	95	15	–	IC50 ([4]; antagonist mode, fixed concentration of PGD2 (EC80)): 9 nM; EC50 [4]: 1 nM; Emax [4]: 12%
O=C(O)COc1ccc(Cl)cc1C#Cc1ccc(CO)cc1F [Example 26, (4-chloro-2-{[2-fluoro-4-(hydroxymethyl)phenyl]ethynyl}phenoxy)acetic acid]	28	679	140	–	–
COCCS(=O)(=O)c1ccc(F)c(C#Cc2cc(Cl)ccc2OCC(=O)O)c1 [Example 106, [4-chloro-2-({2-fluoro-5-[(2-methoxyethyl)sulfonyl]phenyl}ethynyl)phenoxy]acetic acid]	2	–	–	125 to 128	–
COC1(C)c2ccc(C#Cc3cc(Cl)ccc3OCC(=O)O)cc2S(=O)(=O)C1(C)C (stereo not drawn) [Example 162, {4-chloro-2-[(3-methoxy-2,2,3-trimethyl-1,1-dioxido-2,3-dihydro-1-benzothien-6-yl)ethynyl]phenoxy}acetic acid]	29	–	–	80 to 95	–
CC(C)CS(=O)(=O)c1ccc(F)c(C#Cc2cc(Cl)ccc2OCC(=O)O)c1 [Example 105, (4-chloro-2-{[2-fluoro-5-(isobutylsulfonyl)phenyl]ethynyl}phenoxy)acetic acid]	2	–	–	141 to 143	–
CS(=O)(=O)c1ccc(F)c(C#Cc2cc(C#N)ccc2OCC(=O)O)c1 [Example 58, (4-cyano-2-{[2-fluoro-5-(methylsulfonyl)phenyl]ethynyl}phenoxy)acetic acid]	14	95	34	–	EC50 [4]: 6 nM; Emax [4]: 32%
CCS(=O)(=O)c1ccc(F)c(C#Cc2cc(Cl)ccc2OCC(=O)O)c1 [Example 104, (4-chloro-2-{[5-(ethylsulfonyl)-2-fluorophenyl]ethynyl}phenoxy)acetic acid]	3	–	–	165 to 169	–
C[C@@H]1C[C@H]2[C@@H]3CCC4=CC(=O)C=C[C@]4(C)[C@@]3(F)[C@@H](O)C[C@]2(C)[C@@]1(O)C(=O)CO [Dexamethasone]	–	–	–	–	% inhibition eosinophils (mean ± s.e.m.) [5]: 90 ± 10%; % inhibition total cells (mean ± s.e.m.) [5]: 88 ± 11%
